Activity calls are given as the source filed them. No cut-off for these calls is given here.
Assays:
[1] = target: Toll-like receptor 4 (Homo sapiens) (UniProt O00206); assay: Antagonist activity at human TLR4 expressed in HEK293 cells co-transfected with MD2 and sAP assessed as inhibition of NF-kappaB activity by reporter gene assay; assay type: cell-based
[2] = target: T1, Toll-like receptor 7 (Homo sapiens) (UniProt Q9NYK1); assay: Antagonist activity at human TLR7 expressed in HEK293 cells co-transfected with MD2 and sAP assessed as inhibition of NF-kappaB activity by reporter gene assay; assay type: cell-based
T1 sequence (whole entry): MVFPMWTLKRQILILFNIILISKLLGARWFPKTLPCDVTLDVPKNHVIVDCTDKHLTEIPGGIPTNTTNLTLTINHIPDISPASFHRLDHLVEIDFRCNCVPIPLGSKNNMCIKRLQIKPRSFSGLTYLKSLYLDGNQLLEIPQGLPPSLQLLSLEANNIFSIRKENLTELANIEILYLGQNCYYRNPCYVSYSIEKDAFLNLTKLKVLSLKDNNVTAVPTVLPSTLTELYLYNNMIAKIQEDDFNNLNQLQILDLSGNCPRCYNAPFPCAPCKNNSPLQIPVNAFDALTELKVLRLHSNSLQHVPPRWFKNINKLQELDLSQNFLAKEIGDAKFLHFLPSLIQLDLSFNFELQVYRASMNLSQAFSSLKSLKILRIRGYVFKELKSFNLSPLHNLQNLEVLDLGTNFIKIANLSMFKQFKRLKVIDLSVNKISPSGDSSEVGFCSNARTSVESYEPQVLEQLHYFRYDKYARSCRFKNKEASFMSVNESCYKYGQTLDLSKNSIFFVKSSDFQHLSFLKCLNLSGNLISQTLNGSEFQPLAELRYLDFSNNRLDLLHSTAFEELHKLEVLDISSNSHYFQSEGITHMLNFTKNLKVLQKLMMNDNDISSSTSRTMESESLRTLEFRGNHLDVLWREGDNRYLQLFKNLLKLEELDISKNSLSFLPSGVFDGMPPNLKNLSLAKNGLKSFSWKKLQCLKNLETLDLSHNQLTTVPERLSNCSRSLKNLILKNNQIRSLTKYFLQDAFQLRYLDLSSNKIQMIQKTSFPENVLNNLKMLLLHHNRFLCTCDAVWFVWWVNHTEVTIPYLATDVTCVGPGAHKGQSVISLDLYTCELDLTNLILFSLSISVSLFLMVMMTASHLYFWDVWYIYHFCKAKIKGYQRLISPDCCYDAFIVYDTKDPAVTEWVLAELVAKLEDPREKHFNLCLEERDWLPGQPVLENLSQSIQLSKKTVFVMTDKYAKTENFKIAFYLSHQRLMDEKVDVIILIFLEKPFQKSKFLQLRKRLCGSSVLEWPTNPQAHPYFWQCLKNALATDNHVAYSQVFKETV

[3] = target: T2, Toll-like receptor 9 (Homo sapiens) (UniProt Q9NR96); assay: Antagonist activity at human TLR9 expressed in HEK293 cells co-transfected with MD2 and sAP assessed as inhibition of NF-kappaB activity by reporter gene assay; assay type: cell-based
T2 sequence (whole entry): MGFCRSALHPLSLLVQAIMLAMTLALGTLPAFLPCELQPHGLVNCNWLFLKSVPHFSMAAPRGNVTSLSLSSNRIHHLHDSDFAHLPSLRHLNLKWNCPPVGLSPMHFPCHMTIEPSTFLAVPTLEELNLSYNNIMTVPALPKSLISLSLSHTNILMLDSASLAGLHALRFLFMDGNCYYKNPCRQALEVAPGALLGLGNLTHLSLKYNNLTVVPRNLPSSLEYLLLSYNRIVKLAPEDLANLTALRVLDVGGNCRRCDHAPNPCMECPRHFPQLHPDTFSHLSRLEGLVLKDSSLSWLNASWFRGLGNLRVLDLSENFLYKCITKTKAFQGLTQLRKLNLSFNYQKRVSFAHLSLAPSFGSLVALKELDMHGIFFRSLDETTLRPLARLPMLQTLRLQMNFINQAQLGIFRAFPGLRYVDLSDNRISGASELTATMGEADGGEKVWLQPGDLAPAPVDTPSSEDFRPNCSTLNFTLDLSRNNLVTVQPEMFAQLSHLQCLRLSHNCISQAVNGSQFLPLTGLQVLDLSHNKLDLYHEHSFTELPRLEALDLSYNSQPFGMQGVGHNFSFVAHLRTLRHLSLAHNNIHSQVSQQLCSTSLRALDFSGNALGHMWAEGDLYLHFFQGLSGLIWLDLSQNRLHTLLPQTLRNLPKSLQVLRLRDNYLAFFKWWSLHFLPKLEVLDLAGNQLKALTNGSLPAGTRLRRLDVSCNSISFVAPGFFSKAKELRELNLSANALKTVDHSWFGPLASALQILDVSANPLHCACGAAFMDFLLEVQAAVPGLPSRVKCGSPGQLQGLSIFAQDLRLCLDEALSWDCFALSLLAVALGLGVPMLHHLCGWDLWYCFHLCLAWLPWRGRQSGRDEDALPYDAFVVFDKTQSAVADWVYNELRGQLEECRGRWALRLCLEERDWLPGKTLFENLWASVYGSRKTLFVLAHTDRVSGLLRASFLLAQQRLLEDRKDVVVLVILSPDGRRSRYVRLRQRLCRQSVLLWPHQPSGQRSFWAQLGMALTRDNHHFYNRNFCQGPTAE

[4] = target: Toll-like receptor 3 (Homo sapiens) (UniProt O15455); assay: Antagonist activity at human TLR3 expressed in HEK293 cells co-transfected with MD2 and sAP assessed as inhibition of NF-kappaB activity by reporter gene assay; assay type: cell-based
Toll-like receptor 3 (Homo sapiens), sequence (O15455 whole entry): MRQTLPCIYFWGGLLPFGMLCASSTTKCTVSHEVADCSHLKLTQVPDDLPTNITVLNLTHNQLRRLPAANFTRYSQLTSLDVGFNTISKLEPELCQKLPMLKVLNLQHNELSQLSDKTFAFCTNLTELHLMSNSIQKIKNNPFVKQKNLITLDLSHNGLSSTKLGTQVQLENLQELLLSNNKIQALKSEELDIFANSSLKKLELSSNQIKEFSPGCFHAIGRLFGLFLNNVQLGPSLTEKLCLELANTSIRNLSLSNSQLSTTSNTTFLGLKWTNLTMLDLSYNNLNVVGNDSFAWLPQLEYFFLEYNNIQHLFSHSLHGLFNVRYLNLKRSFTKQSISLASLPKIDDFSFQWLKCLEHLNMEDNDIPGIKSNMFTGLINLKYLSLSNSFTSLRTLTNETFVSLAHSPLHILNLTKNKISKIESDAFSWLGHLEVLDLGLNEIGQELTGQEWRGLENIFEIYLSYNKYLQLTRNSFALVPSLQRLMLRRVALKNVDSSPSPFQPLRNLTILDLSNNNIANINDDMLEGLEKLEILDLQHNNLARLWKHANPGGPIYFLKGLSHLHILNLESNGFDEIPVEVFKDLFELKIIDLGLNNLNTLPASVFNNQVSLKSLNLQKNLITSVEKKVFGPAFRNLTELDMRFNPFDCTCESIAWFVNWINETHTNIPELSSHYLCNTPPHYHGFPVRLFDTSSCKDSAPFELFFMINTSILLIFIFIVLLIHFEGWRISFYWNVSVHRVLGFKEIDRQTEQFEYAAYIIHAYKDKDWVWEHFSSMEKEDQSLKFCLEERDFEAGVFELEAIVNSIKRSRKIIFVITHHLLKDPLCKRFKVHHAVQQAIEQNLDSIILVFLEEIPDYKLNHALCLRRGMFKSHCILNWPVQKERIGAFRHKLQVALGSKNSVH

[5] = target: Toll-like receptor 2 (Homo sapiens) (UniProt O60603); assay: Antagonist activity at human TLR2 expressed in HEK293 cells co-transfected with MD2 and sAP assessed as inhibition of NF-kappaB activity by reporter gene assay; assay type: cell-based
Toll-like receptor 2 (Homo sapiens), sequence (O60603 whole entry, the tested form may be a part): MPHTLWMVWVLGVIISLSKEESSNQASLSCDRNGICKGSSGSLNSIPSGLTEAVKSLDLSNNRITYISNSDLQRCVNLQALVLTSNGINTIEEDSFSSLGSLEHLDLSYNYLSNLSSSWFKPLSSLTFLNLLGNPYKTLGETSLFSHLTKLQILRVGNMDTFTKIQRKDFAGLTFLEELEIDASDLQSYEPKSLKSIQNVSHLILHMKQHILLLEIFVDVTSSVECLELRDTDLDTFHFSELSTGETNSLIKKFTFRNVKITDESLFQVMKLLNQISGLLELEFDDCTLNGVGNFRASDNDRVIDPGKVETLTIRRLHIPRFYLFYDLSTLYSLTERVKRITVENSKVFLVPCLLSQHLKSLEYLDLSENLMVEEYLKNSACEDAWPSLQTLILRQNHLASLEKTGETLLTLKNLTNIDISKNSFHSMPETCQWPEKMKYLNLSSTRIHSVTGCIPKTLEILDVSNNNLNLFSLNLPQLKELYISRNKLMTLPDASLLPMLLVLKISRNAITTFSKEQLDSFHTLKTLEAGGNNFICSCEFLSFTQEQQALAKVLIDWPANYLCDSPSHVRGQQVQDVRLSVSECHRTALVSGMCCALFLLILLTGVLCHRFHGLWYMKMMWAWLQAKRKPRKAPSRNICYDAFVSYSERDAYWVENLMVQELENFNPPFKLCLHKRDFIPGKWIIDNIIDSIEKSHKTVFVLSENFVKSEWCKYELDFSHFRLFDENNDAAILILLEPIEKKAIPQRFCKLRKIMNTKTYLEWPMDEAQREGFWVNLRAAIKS

[6] = target: Nucleotide-binding oligomerization domain-containing protein 2 (Homo sapiens) (UniProt Q9HC29); assay: Antagonist activity at NOD2 (unknown origin)
Nucleotide-binding oligomerization domain-containing protein 2 (Homo sapiens), sequence (Q9HC29 whole entry, the tested form may be a part): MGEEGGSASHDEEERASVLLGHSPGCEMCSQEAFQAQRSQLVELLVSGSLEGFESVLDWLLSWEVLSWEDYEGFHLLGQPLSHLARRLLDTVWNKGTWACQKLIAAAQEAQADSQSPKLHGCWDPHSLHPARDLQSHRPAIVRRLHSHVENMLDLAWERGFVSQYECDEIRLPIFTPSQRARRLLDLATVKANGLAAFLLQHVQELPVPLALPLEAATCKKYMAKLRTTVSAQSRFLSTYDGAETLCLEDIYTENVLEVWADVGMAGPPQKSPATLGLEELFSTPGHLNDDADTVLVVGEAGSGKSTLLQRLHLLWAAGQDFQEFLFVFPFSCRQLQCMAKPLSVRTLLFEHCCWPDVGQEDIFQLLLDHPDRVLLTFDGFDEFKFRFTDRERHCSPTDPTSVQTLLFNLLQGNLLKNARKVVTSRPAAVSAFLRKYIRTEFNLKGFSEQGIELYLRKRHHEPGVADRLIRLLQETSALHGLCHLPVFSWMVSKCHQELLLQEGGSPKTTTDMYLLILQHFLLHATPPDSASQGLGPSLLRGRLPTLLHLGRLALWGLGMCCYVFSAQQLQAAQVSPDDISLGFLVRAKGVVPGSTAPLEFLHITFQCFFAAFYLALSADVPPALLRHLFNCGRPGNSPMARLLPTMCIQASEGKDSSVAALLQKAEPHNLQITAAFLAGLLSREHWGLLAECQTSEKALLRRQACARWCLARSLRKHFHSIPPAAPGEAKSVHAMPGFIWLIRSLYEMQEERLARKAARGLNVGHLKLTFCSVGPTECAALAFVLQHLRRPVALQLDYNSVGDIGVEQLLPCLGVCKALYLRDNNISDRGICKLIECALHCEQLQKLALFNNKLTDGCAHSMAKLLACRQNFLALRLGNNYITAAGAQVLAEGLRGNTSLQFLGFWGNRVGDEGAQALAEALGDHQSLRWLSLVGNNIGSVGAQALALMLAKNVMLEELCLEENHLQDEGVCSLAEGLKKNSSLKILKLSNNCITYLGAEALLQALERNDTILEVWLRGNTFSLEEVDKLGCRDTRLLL

Toll-like receptor 4 (Homo sapiens), sequence (O00206 whole entry): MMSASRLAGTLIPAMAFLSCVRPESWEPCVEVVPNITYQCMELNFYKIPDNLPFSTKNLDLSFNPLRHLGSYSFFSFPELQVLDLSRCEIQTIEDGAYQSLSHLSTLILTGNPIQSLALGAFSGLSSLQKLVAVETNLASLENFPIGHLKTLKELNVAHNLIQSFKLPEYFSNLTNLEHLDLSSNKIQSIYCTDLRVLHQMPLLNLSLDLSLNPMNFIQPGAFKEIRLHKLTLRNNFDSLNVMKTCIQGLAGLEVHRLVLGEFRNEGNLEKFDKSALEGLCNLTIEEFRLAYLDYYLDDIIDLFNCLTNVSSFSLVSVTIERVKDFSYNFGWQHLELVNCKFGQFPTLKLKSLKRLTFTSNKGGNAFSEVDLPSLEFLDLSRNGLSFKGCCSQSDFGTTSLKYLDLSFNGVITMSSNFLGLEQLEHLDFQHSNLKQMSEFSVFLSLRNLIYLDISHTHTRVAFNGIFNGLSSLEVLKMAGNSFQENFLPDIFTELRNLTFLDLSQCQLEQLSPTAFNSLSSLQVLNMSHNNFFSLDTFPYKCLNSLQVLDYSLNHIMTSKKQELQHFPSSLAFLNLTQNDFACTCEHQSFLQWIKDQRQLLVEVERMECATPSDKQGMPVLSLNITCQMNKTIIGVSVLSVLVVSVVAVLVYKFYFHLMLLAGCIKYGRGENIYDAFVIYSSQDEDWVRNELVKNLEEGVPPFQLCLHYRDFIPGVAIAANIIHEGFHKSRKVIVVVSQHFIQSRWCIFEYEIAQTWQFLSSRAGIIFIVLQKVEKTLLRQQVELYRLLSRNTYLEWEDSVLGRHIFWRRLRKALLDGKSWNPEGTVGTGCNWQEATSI

| inhibition [1] | inhibition [2] | inhibition [3] | inhibition [4] | inhibition [5] | inhibition [6] | Structure (SMILES) |
| --- | --- | --- | --- | --- | --- | --- |
| inactive | inactive | inactive | inactive | inactive | inactive | CCCCc1cc2c(N)nc3ccccc3c2o1 |
| inactive | inactive | inactive | inactive | inactive | inactive | CCCc1cc2c(N)nc3ccccc3c2o1 |
| inactive | inactive | inactive | inactive | inactive | inactive | CCCCc1cc2c(nc(N)c3ccccc32)o1 |
| inactive | inactive | inactive | inactive | inactive | inactive | Nc1nc2ccccc2c2oc(-c3ccccc3)cc12 |
